Assay results taken from patent publication US10004792B2, “Peptides and combination of peptides for use in immunotherapy against various cancers” (immatics biotechnologies GmbH, priority 2015, dated 2018).

The substances below were run on HLA-A*24 (assay: MHC binding assay (UV-ligand exchange, beta2m ELISA), HLA-A*24). Conditions: peptide exchange yield, binding to HLA-A*24, UV-ligand exchange, β2m ELISA.
Set-up: species or system human
Source text: Candidate peptides for T cell based therapies according to the present invention were further tested for their MHC binding capacity (affinity). The individual peptide-MHC complexes were produced by UV-ligand exchange, where a UV-sensitive peptide is cleaved upon UV-irradiation, and exchanged with the peptide of interest as analyzed. Only peptide candidates that can effectively bind and stabilize the peptide-receptive MHC molecules prevent dissociation of the MHC complexes. To determine the yield of the exchange reaction, an ELISA was performed based on the detection of the light chain (β2m) of stabilized MHC complexes. The assay was performed as generally described in Rodenko et al. (Rodenko et al., 2006).
96 well MAXISorp plates (NUNC) were coated over night with 2 ug/ml streptavidin in PBS at room temperature, washed 4× and blocked for 1 h at 37° C. in 2% BSA containing blocking buffer. Refolded HLA-A*02:01/MLA-001 monomers served as standards, covering the range of 15-500 ng/ml. Peptide-MHC monomers of the UV-exchange reaction were diluted 100 fold in blocking buffer. Samples were incubated for 1h at 37° C., washed four times, incubated with 2 ug/ml HRP conjugated anti-62m for 1 h at 37° C., washed again and detected with TMB solution that is stopped with […]. Absorption was measured at 450 nm. Candidate peptides that show a high exchange yield (preferably higher than 50%, most preferred higher than 75%) are generally preferred for a generation and production of antibodies or fragments thereof, and/or T cell receptors or fragments thereof, as they show sufficient avidity to the MHC molecules and prevent dissociation of the MHC complexes.
For “160 (VYTLDIPVL; listed as Homo sapiens) [compound 160]”, the Peptide exchange was “++++ (>=75% = ++++)”.
With “161 (IYLVSIPEL; listed as Homo sapiens) [compound 161]” the Peptide exchange was “++++ (>=75% = ++++)”.
For “166 (YYVESGKLF; listed as Homo sapiens) [compound 166]”, the Peptide exchange was “++++ (>=75% = ++++)”.
“168 (KYQDILETI; listed as Homo sapiens) [compound 168]” was tested, and the Peptide exchange was “++++ (>=75% = ++++)”.
With “172 (TYTTVPRVAF; listed as Homo sapiens) [compound 172]” the Peptide exchange was “++++ (>=75% = ++++)”.
For “173 (IYSWILDHF; listed as Homo sapiens) [compound 173]”, the Peptide exchange was “++++ (>=75% = ++++)”.
“175 (YYEVHKELF; listed as Homo sapiens) [compound 175]” was tested, and the Peptide exchange was “++++ (>=75% = ++++)”.
In the case of “177 (VYPWLGALL; listed as Homo sapiens) [compound 177]”, the Peptide exchange is reported as “++++ (>=75% = ++++)”.
For “179 (MYDSYWRQF; listed as Homo sapiens) [compound 179]”, the Peptide exchange was “++++ (>=75% = ++++)”.
In the case of “181 (LYLDIINLF; listed as Homo sapiens) [compound 181]”, the Peptide exchange is reported as “++++ (>=75% = ++++)”.
With “184 (VFQNFPLLF; listed as Homo sapiens) [compound 184]” the Peptide exchange was “++++ (>=75% = ++++)”.
In the case of “186 (IFPQFLYQF; listed as Homo sapiens) [compound 186]”, the Peptide exchange is reported as “++++ (>=75% = ++++)”.
In the case of “187 (TYLRDQHFL; listed as Homo sapiens) [compound 187]”, the Peptide exchange is reported as “++++ (>=75% = ++++)”.
For “192 (SYALLTYMI; listed as Homo sapiens) [compound 192]”, the Peptide exchange was “++++ (>=75% = ++++)”.
In the case of “193 (RFHPTPLLL; listed as Homo sapiens) [compound 193]”, the Peptide exchange is reported as “++++ (>=75% = ++++)”.
With “194 (EFGSLHLEFL; listed as Homo sapiens) [compound 194]” the Peptide exchange was “+ (<20% = +)”.
With “195 (TYSVSFPMF; listed as Homo sapiens) [compound 195]” the Peptide exchange was “++++ (>=75% = ++++)”.
With “202 (VYWDSAGAAHF; listed as Homo sapiens) [compound 202]” the Peptide exchange was “++++ (>=75% = ++++)”.
With “210 (IYTMIYRNL; listed as Homo sapiens) [compound 210]” the Peptide exchange was “++++ (>=75% = ++++)”.
With “211 (YYLEVGKTLI; listed as Homo sapiens) [compound 211]” the Peptide exchange was “++++ (>=75% = ++++)”.
In the case of “216 (QYSSVFKSL; listed as Homo sapiens) [compound 216]”, the Peptide exchange is reported as “++++ (>=75% = ++++)”.
With “217 (FFPPTRQMGLLF; listed as Homo sapiens) [compound 217]” the Peptide exchange was “++++ (>=75% = ++++)”.
For “227 (IFLDYEAGTLSF; listed as Homo sapiens) [compound 227]”, the Peptide exchange was “++++ (>=75% = ++++)”.
In the case of “228 (KYTSWYVAL; listed as Homo sapiens) [compound 228]”, the Peptide exchange is reported as “++++ (>=75% = ++++)”.
In the case of “267 (KYMVYPQTF; listed as Homo sapiens) [compound 267]”, the Peptide exchange is reported as “++++ (>=75% = ++++)”.
With “271 (LYHDIFSRL; listed as Homo sapiens) [compound 271]” the Peptide exchange was “++++ (>=75% = ++++)”.
In the case of “272 (QYLQDAYSF; listed as Homo sapiens) [compound 272]”, the Peptide exchange is reported as “++++ (>=75% = ++++)”.
In the case of “274 (AYLHSHALI; listed as Homo sapiens) [compound 274]”, the Peptide exchange is reported as “++++ (>=75% = ++++)”.
With “276 (VYGFQWRHF; listed as Homo sapiens) [compound 276]” the Peptide exchange was “++++ (>=75% = ++++)”.
With “277 (VYQGHTALL; listed as Homo sapiens) [compound 277]” the Peptide exchange was “++++ (>=75% = ++++)”.
With “278 (RYISDQLFTNF; listed as Homo sapiens) [compound 278]” the Peptide exchange was “++++ (>=75% = ++++)”.
“280 (RYPDNLKHLYL; listed as Homo sapiens) [compound 280]” was tested, and the Peptide exchange was “++++ (>=75% = ++++)”.
